This note sets out measurements from patent publication US6165986A (Taisho Pharmaceutical Co., Ltd., priority 1997, dated 2000).

≈ marks a conversion by molar mass, not a printed value.

What all share (type): cell-based
The test system of assay [1] is S. pneumoniae BM 211. In words: In vitro antibacterial activity (MIC), S. pneumoniae BM 211. The settings on record: Streptococcus pneumoniae, BM211, sensitive disc media, Japan Society of Chemotherapy method, read-out: MIC value (Minimum Inhibitory Concentration). On the procedure: (§1) The in vitro antibacterial activity of the compound obtained in Example 2 as an example of the compound of the present invention against various experimental bacteria was measured using sensitive disc media (produced by Eiken Chemical Co.) according to the MIC measuring method specified by the Japan Society of Chemotherapy. Clarithromycin was used as a comparative drug.

For assay [2], the system named is S. pneumoniae BM 225. In words: In vitro antibacterial activity (MIC), S. pneumoniae BM 225. The settings on record: Streptococcus pneumoniae, BM225, sensitive disc media, Japan Society of Chemotherapy method, read-out: MIC value (Minimum Inhibitory Concentration). On the procedure:
as §1

The test system of assay [3] is S. aureus 209P-JC. The experiment in a line: In vitro antibacterial activity (MIC), S. aureus 209P-JC. The note with it: Staphylococcus aureus, sensitive disc media, Japan Society of Chemotherapy method, read-out: MIC value (Minimum Inhibitory Concentration). On the procedure:
as §1

Assay [4] has as its system E. faecalis CSJ 1212. In words: In vitro antibacterial activity (MIC), E. faecalis CSJ 1212. The note with it: Enterococcus faecalis, CSJ1212, sensitive disc media, Japan Society of Chemotherapy method, read-out: MIC value (Minimum Inhibitory Concentration). On the procedure: as §1
The test system of assay [5] is S. aureus Smith. In words: In vitro antibacterial activity (MIC), S. aureus Smith. The settings on record: Staphylococcus aureus, sensitive disc media, Japan Society of Chemotherapy method, read-out: MIC value (Minimum Inhibitory Concentration). On the procedure:
as §1

For assay [6], the system named is S. epidermidis IID 866. In words: In vitro antibacterial activity (MIC), S. epidermidis IID 866. The note with it: Staphylococcus epidermidis, IID866, sensitive disc media, Japan Society of Chemotherapy method, read-out: MIC value (Minimum Inhibitory Concentration). As to the method:
as §1

Assay [7] relates to Haemophilus influenzae. In words: Antibacterial activity against Haemophilus influenzae. As to the method:
as §1

Assay [8] concerns erythromycin-resistant bacteria. The experiment in a line: Antibacterial activity against erythromycin-resistant bacteria. On the procedure:
as §1

The subject of assay [9] is erythromycin-sensitive bacteria. In words: Antibacterial activity against erythromycin-sensitive bacteria. On the procedure: as §1

For `CC[C@H]1OC(=O)[C@H](C)[C@@H](O[C@H]2C[C@@](C)(OC)[C@@H](O)[C@H](C)O2)[C@H](C)[C@@H](O[C@@H]2O[C@H](C)C[C@H](N(C)C)[C@H]2O)[C@](C)(OC)C[C@@H](C)C(=O)[C@H](C)[C@@H](O)[C@]1(C)O` [Comparative drug, Clarithromycin, reference compound], the MIC was > 100 µg/mL in assay [1]; 50 µg/mL (≈ 66.8 µM) in [2]; 0.1 µg/mL (≈ 0.134 µM) in assay [3]; 0.2 µg/mL (≈ 0.267 µM) in assay [4]; 0.2 µg/mL (≈ 0.267 µM) in assay [5]; 0.2 µg/mL (≈ 0.267 µM) in assay [6].

Turning to `CC[C@H]1OC(=O)[C@H](C)C(=O)[C@H](C)[C@@H](O[C@@H]2O[C@H](C)C[C@H](N(C)C)[C@H]2O)[C@](C)(OC)C[C@@H](C)C(=O)[C@H](C)[C@H]2N(CCN(C)Cc3cccnc3)C(=O)O[C@]12C` [Example 2, 11-[2-[N-methyl-N-(3-pyridylmethyl)amino]ethyl]amino-3,11-dideoxy-3-oxo-5-O-desosaminyl-6-O-methylerythronolide A 11,12-cyclic carbamate], the MIC was 50 µg/mL (≈ 65.7 µM) in assay [1]; 0.39 µg/mL (≈ 0.513 µM) in assay [2]; 0.05 µg/mL (≈ 0.0657 µM) in assay [3]; 0.05 µg/mL (≈ 0.0657 µM) in assay [4]; 0.1 µg/mL (≈ 0.131 µM) in [5]; 0.1 µg/mL (≈ 0.131 µM) in [6]. Besides, the “antibacterial activity (in words)” value in [7], in assay [8] and in assay [9] was “strong antibacterial activity” each time.
